These molecules were tested against T1, P2X7 receptor (Homo sapiens, UniProt Q99572) (assay: P2X7 calcium mobilization assay, high throughput, antagonist activity (Example 4A)). Conditions: 50% decrease in the fluorescence response of cells exposed to 80 μM 2′(3′)-O-(4-benzoyl-benzoyl)adenosine 5′-triphosphate; Example 4A; read-out: IC50.
T1 construct: host or cells: SH-SY5Y
T1 sequence (Q99572 1-595): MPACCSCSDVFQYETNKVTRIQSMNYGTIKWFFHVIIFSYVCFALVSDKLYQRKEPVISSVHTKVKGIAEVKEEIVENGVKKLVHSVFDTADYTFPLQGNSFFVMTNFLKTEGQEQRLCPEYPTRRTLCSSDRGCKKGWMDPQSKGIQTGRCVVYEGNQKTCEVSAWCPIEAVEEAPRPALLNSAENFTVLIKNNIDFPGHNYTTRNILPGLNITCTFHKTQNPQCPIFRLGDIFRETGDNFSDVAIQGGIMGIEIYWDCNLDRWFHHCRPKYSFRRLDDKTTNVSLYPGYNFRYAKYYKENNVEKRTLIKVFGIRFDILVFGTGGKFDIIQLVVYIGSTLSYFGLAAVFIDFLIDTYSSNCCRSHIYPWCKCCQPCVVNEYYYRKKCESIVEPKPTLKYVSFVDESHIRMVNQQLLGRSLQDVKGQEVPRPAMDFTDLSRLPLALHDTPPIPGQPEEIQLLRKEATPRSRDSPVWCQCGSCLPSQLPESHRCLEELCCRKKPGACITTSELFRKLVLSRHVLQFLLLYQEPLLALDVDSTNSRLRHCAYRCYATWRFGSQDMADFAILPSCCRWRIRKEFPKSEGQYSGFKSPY
Type: cell-based
Outline: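 Cells plated 100,000/well the day before; after 1 h dye loading and one rinse, cells were preincubated 1 h at room temperature with test compound. Calcium mobilization then read on FLIPR^TETRA; maximum RFU corrected by subtracting mean no-agonist response and referenced to mean agonist-control maximum.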

| Compound | IC50 [nM] |
| --- | --- |
| COC1CCN(C(=O)c2cn3c(C(=O)NC[C@@H]4CC[C@H]5C[C@@H]4C5(C)C)cccc3n2)CC1 [Compound 493, N-{[(1S,2R,5S)-6,6-dimethylbicyclo [3.1.1]hept-2-yl]methyl}-2-[(4-methoxy-piperidin-1-yl)carbonyl] imidazo[1,2-a] pyridine-5-carboxamide] | < 2000 |
| CC1(C)C2CC[C@H](CNC(=O)c3cccc4nc(CC(=O)N5CC[C@@H](N)C5)cn34)C1C2 (relative stereo) [Compound 549, rel-2-{2-[(3R)-3-aminopyrrolidin-1-yl]-2-oxoethyl}-N-{[(2S)-6,6-dimethylbicyclo[3.1.1]hept-2-yl]methyl}imidazo[1,2-a]pyridine-5-carboxamide] | < 2000 |

More lines, now with the values ahead:

| IC50 [nM] | Compound |
| --- | --- |
| < 2000 | CC(C)[C@H]1CNCCN1C(=O)c1cn2c(C(=O)NCC34CC5CC(CC(C5)C3)C4)cccc2n1 [Compound 612, N-(adamantan-1-ylmethyl)-2-{[(2S)-2-isopropylpiperazin-1-yl]carbonyl}imidazo[1,2-a]pyridine-5-carboxamide] |
| < 2000 | CCNCc1cn2c(C(=O)NCC34CC5CC(CC(C5)C3)C4)cccc2n1 [Compound 534, N-(adamantan-1-ylmethyl)-2-[(ethylamino)methyl] imidazo[1,2-a]pyridine-5-carboxamide] |
| < 2000 | O=C(NCC12CC3CC(CC(C3)C1)C2)c1cccc2nc(CN3C[C@H](O)CC3=O)cn12 [Compound 538, N-(adamantan-1-ylmethyl)-2-{[(4R)-4-hydroxy-2-oxopyrrolidin-1-yl]methyl}imidazo[1,2-a]pyridine-5-carboxamide] |
| < 2000 | CC(C)(CO)c1cn2c(C(=O)NCC34CC5CC(CC(C5)C3)C4)cccc2n1 [Compound 539, N-(adamantan-1-ylmethyl)-2-(2-hydroxy-1,1-dimethylethyl)imidazo [1,2-a]pyridine-5-carboxamide] |

Same assay, conditions: 50% decrease in the fluorescence response of cells exposed to 80 μM of 2′(3′)-O-(4-benzoyl-benzoyl)adenosine 5′-triphosphate; Example 4A; read-out: IC50

| Compound | IC50 [nM] |
| --- | --- |
| CC(C)N(CCNC(=O)c1cn2c(C(=O)NCC34CC5CC(CC(C5)C3)C4)cccc2n1)C(C)C [Compound 652, 5-N-(adamantan-1-ylmethyl)-2-N-[2-(diisopropylamino)ethyl]imidazo [1,2-a] pyridine-2,5-dicarboxamide] | < 2000 |
| CC(C)(C)OC(=O)N[C@@H]1CCN(Cc2cn3c(C(=O)NCC(CC4CCCC4)c4ccccc4)cccc3n2)C1 (stereo in doubt) [Compound 784, tert-butyl [1-({5-[(3-cyclopentyl-2-phenylpropyl)carbamoyl]imidazo[1,2-a]pyridin-2-yl}methyl)pyrrolidin-3-yl]carbamate] | < 2000 |

Other lines, results leading:

| IC50 [nM] | Compound |
| --- | --- |
| < 2000 | COCc1ccc(CN(C)C(=O)c2cn3c(C(=O)NCC45CC6CC(CC(C6)C4)C5)cccc3n2)nc1 [Compound 710, 5-N-(adamantan-1-ylmethyl)-2-N-{[5-(methoxymethyl)pyridin-2-yl]methyl}-2-N-methylimidazo[1,2-a]pyridine-2,5-dicarboxamide] |
| < 2000 | CCN(Cc1ccc(C2=NCCN2)cc1)C(=O)c1cn2c(C(=O)NCC34CC5CC(CC(C5)C3)C4)cccc2n1 [Compound 715, 5-N-(adamantan-1-ylmethyl)-2-N-[4-(4,5-dihydro-1H-imidazol-2-yl)benzyl]-2-N-ethylimidazo[1,2-a]pyridine-2,5-dicarboxamioe] |

Same assay, conditions: 50% decrease in the fluorescence response of cells exposed to 80 μM of 2′(3′)-O-(4-benzoyl-benzoyl)adenosine 5′-triphosphate; determined as in Example 4A; read-out: IC50

| Compound | IC50 [nM] |
| --- | --- |
| COc1ccc(C2(CNC(=O)c3cccc4nc(CC(=O)N[C@@H]5CCN(C(=O)OC(C)(C)C)C5)cn34)CCCCC2)cc1 [Compound 950, tert-butyl (3R)-3-({[5-({[1-(4-methoxyphenyl)cyclohexyl]methyl}carbamoyl)imidazo [1,2-a]pyridin-2-yl]acetyl}amino) pyrrolidine-1-carboxylate] | < 2000 |
| O=C(NCC1(c2ccc(F)cc2)CCCCC1)c1cccc2nc(CC(Cc3ccccc3)C(=O)O)cn12 (centres unmarked) [Compound 1012, 2-benzyl-3-[5-({[1-(4-fluorophenyl)cyclohexyl]methyl}carbamoyl)imidazo[1,2-a]pyridin-2-yl]propanoic acid] | < 2000 |
| O=C(O)CCc1cn2c(C(=O)NCC3(c4ccc(C(F)(F)F)cc4)CCCCC3)cccc2n1 [Compound 941, 3-{5-[({1-[4-(trifluoromethyl)phenyl]cyclohexyl}methyl)carbamoyl]imidazo [1,2-a]pyridin-2-yl}propanoic acid] | < 2000 |

The next lines start with the values.

| IC50 [nM] | Compound |
| --- | --- |
| < 2000 | O=C(NCC12CC3CC(CC(C3)C1)C2)c1cccc2nc(C(=O)n3ccc(N4CCNC4=O)n3)cn12 [Compound 826, N-(adamantan-1-ylmethyl)-2-{[3-(2-oxoimidazolidin-1-yl)-1H-pyrazol-1-yl]carbonyl}imidazo [1,2-a]pyridine-5-carboxamide] |
| < 2000 | CN(Cc1cccc(N)n1)C(=O)c1cn2c(C(=O)NCC34CC5CC(CC(C5)C3)C4)cccc2n1 [Compound 825, 5-N-(adamantan-1-ylmethyl)-2-N-[(6-aminopyridin-2-yl)methyl]-2-N-methylimidazo[1,2-a]pyridine-2,5-dicarboxamide] |

Same assay, conditions: P2X7 calcium mobilization, Example 4A; 50% decrease in the fluorescence response of cells exposed to 80 μM of (2′(3′)-O-(4-benzoyl-benzoyl)adenosine 5′-triphosephate); read-out: IC50

| IC50 [nM] | Compound |
| --- | --- |
| < 2000 | Cc1ccc(C(CNC(=O)c2cccc3nc(CN4CCCC4)cn23)CC(C)C)cc1 (centres unmarked) [Compound 1048, N-[4-methyl-2-(4-methylphenyl)pentyl]-2-(pyrrolidin-1-ylmethyl) imidazo [1,2-a] pyridine-5-carboxamide] |

Same assay, conditions: SH-SY5Y cells; 50% decrease in fluorescence response to 80 μM BzATP; read-out: IC50

| IC50 [nM] | Compound |
| --- | --- |
| < 2000 | CC(=O)NCCNCc1cn2c(C(=O)NCC34CC5CC(CC(C5)C3)C4)cccc2n1 [Compound 67, 2-{[(2-acetamido-ethyl)amino]methyl}-N-(adamantan-1-ylmethyl)imidazo[1,2-a]pyridine-5-carboxamide] |
| < 2000 | Nc1nnn(Cc2cn3c(C(=O)NCC45CC6CC(CC(C6)C4)C5)cccc3n2)n1 [Compound 206, N-(adamantan-1-ylmethyl)-2-[(5-amino-2H-tetrazol-2-yl)methyl]imidazo[1,2-a]pyridine-5-carboxamide] |
| < 2000 | CC(=O)c1cn2c(C(=O)NCC34CC5CC(CC(C5)C3)C4)cccc2n1 [Compound 196, 2-acetyl-N-(adamantan-1-ylmethyl)imidazo[1,2-a]pyridine-5-carboxamide] |

Same assay, conditions: fluorescence response of cells exposed to 80 μM 2′(3′)-O-(4-benzoyl-benzoyl)adenosine 5′-triphosphate; Example 4A; read-out: IC50

| IC50 [nM] | Compound |
| --- | --- |
| < 2000 | CN(C)CCN(C(=O)c1cn2c(C(=O)NC[C@@H]3CC[C@H]4C[C@@H]3C4(C)C)cccc2n1)C1CCNCC1(C)C (stereo partly drawn) [Compound 319, 2-N-[2-(dimethylamino)ethyl]-5-N-{[(1S,2R,5S)-6,6-dimethylbicyclo[3.1.1]hept-2-yl]methyl}-2-N-(3,3-dimethylpiperidin-4-yl)imidazo[1,2-a]pyridine-2,5-dicarboxamide] |
| < 2000 | CC(C)N(CCCO)C(=O)c1cn2c(NC(=O)CC34CC5CC(CC(C5)C3)C4)cccc2n1 [Compound 416, 5-[(adamantan-1-ylacetyl)amino]-N-(3-hydroxypropyl)-N-isopropylimidazo[1,2-a]pyridine-2-carboxamide] |
| < 2000 | CNC1CCN(C(=O)c2cn3c(C(=O)NC[C@@H]4CC[C@H]5C[C@@H]4C5(C)C)cccc3n2)C1 (stereo partly drawn) [Compound 313, N-{[(1S,2R,5S)-6,6-dimethylbicyclo[3.1.1]hept-2-yl]methyl}-2-{[3-(methylamino)pyrrolidin-1-yl]carbonyl}imidazo[1,2-a]pyridine-5-carboxamide] |
| < 2000 | CC(C)CC(CNC(=O)c1cccc2nc(CC(=O)NC3CCCC3)cn12)c1ccccc1 (centres unmarked) [Compound 224, 2-[2-(cyclopentylamino)-2-oxoethyl]-N-(4-methyl-2-phenylpentyl) imidazo [1,2-a]pyridine-5-carboxamide] |
